According to paper PMC11989239, “Structure–Property Relationships in Novel Series of Photoswitchable Local Anesthetic Ethercaine Derivatives: Emphasis on Biological and Photophysical Properties” (International Journal of Molecular Sciences, 2025):
Where a name gives a salt, the structure may show the parent alone. Read-outs that look alike come from different tables or passages of the source.

Assays:
[1] = Z-E isomerization half-life by UV/Vis spectrophotometry after 365 nm irradiation; format: physicochemical; settings: for τ1/2 (DMSO), Z-E isomerization half-life: RT, after 365 nm 5 min; for τ1/2 (Aqueous Kolliphor ELP), Z-E isomerization half-life: aqueous 4% Kolliphor ELP solution
Protocol: As one of the main physicochemical properties of photopharmacological agents, the Z-E half-life was investigated, which determines the stability of the Z-isomer. The Z-E half-lifes were measured using UV/Vis spectrophotometry, converting the compound to the Z-isomer by irradiating with UV light and observing the change in absorption intensity due to reverse Z-E relaxation.
Z-E isomerization half-life was determined using UV/Vis spectroscopy. Solutions were prepared and kept in the dark at RT before the experiment. First, the spectrum in the dark was registered ( PSSdark) , which corresponds to the photostationary state (PSS) with E-isomer predominance. Then, the cuvette with the solution was irradiated with UV light (λ = 365 nm) for 5 min to give the PSS with Z-isomer predominance. The corresponding spectrum was registered ( PSS365nm) . During the subsequent isomerization, the kinetics of changes in the absorption value were recorded at the wavelength of the absorption maximum corresponding to the E-isomer ( λmax(E)) . Then, lnAt/A0 values were calculated using the Equation (1):(1) lnAt/A0=lnAbsPSS(dark)−Abstime/AbsPSS(dark)−AbsPSS(365nm), where AbsPSS(dark) , AbsPSS(365nm), and Abstime are absorbance values at λmax(E) in the dark at the beginning of the experiment, after UV light (λ = 365 nm) irradiation, and at different time points from 0 to 60 min, respectively. Then, a graph was plotted depending on lnAt/A0 values from time, the trend line was calculated, and a first-order rate constant (k) for the thermal back Z-E isomerization reaction was obtained as the slope of the trend line.
For a first-order reaction, half-life t1/2 can be calculated using the Equation (2):(2) t1/2=ln2/k

[2] = Solubility in water / aqueous solutions; format: physicochemical
[3] = In vitro cytotoxicity, MTT test, 24 h incubation; format: cell-based, human; settings: human, dermal fibroblast cells (DF2), DF2 fibroblasts
Protocol: The culture of dermal fibroblast cells (DF2) was obtained from the collection of the Institute of Cytology of the Russian Academy of Sciences (Saint Petersburg, Russia). The cells were cultured in plastic vials with a cell growth surface of 25 cm^2 (Costar, Richmond, VA, USA) on DMEM/F12 medium with the addition of L-glutamine and 10% fetal bovine serum (FBS) (PanEco, Moscow, Russia). The cells were cultured at 37 °C in a humid atmosphere with a content of 5% CO2 (Binder CO2 incubator, Germany). Cell lines from 3 to 7 passages were used in the work. To conduct experiments to evaluate the cytotoxicity of compounds, cells were sieved into 96-well culture plates at a concentration of 10^5 cells per ml, incubated at 37 °C (humidified atmosphere, 5% carbon dioxide) for 24–28 h. Further, 50 µL of the studied substances was added. The cells were incubated with the compounds for 24 h at 37 °C. Next, the cytotoxic effect of the substances was evaluated by a colorimetric method using an MTT test and visually, using an inverted microscope. The criterion for evaluating the specific activity of the compound was the value of IC50, the concentration at which 50% death of culture cells was noted.

[4] = system: rabbit eye cornea; set-up: method as in PMID 35628162; settings: 2% solution of lidocaine, obtained previously, cited from earlier work; for Local Anesthetic Activity (Regnier Index, Min—13, Max—1300) Under Irradiation (λ = 365 nm): UV light irradiation

SMILES | τ1/2 (DMSO), Z-E isomerization half-life [1] | τ1/2 (Aqueous Kolliphor ELP), Z-E isomerization half-life [1] | Solubility in aqueous solutions (in words) ([2]; seen in the cytotoxicity test) | IC50 at 24 h [3] | Local Anesthetic Activity (Regnier Index, Min—13, Max—1300) Under Irradiation (λ = 365 nm) ([4]; listed as lidocaine) | Local Anesthetic Activity (Regnier Index, Min—13, Max—1300) Under Irradiation (λ = 365 nm) [4] | Local Anesthetic Activity (Regnier Index, Min—13, Max—1300) In the Dark ([4]; listed as lidocaine) | Local Anesthetic Activity (Regnier Index, Min—13, Max—1300) In the Dark [4] | solubility ([2]; water)
O=C(CN1CCOCC1)Nc1ccc(/N=N/c2ccccc2)cc1 [Compound 2] | 1830 min | 31 min | poor solubility in aqueous solutions at concentrations above 200 µM | > 200 µM |  |  |  |  | 
CCN(CC)CC(=O)Nc1c(C)cccc1C [Lidocaine 2%, Lidocaine] |  |  |  | > 5000 µM | 469 ± 37 | 469 ± 37 (n = 8) | 451 ± 40 | 451 ± 40 (n = 8) | 
c1csc(/N=N/c2ccc(OCCN3CCOCC3)cc2)n1 [Compound 25a, 2-(4-(2-(N-morpholino)-ethoxy)-phenylazo)-thiazole hydrochloride] | 12 min | 13 min |  | 200 µM |  |  |  |  | > 100 mg/mL
